These are literature values, as cited in patent US20070135454A1, “Bicyclic pyrimidin-4(3h)-ones and analogues and derivatives thereof which modulate the function of the vanilloid-1-receptor(vr1)” (priority 2003, published 2007).

SMILES strings stand for the structures.

The data set addresses VR1 (Rattus norvegicus, UniProt O35433). The following applies: Wahl et al., Mol. Pharmacol, 59:9, 2001.

Chain of VR1 (O35433 whole entry): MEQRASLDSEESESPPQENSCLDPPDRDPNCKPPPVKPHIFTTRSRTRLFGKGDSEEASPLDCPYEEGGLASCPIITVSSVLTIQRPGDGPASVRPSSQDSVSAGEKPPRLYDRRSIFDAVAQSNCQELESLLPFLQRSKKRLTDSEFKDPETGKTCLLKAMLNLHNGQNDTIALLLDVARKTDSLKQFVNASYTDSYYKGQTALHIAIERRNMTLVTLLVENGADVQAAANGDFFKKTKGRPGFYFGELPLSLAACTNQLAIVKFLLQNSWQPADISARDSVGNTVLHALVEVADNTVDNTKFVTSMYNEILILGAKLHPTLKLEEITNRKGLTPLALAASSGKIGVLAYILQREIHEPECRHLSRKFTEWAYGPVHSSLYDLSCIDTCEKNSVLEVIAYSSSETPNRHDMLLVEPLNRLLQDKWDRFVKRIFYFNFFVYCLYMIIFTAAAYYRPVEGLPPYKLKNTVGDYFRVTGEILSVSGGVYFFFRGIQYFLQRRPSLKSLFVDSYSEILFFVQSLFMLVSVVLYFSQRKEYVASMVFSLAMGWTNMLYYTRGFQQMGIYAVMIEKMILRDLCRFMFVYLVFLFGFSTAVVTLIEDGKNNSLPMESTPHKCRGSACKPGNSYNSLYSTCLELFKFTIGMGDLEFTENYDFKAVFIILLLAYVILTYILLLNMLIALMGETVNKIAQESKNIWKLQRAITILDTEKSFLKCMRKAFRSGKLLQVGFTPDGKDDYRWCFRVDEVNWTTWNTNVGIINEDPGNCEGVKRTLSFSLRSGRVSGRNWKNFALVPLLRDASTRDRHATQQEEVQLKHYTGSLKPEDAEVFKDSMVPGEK

For `C=C(C)[C@]12C[C@@H](C)[C@@]34O[C@](Cc5ccccc5)(O[C@@H]1[C@@H]3C=C(COC(=O)Cc1cc(I)c(O)c(OC)c1)C[C@]1(O)C(=O)C(C)=C[C@@H]41)O2` [Iodo-resiniferatoxin], the “antagonist of VR1 (potency in words)” value is “nanomolar antagonist of VR1”.
